{"source": "patent US20240299352A1", "about": "“COMBINATION THERAPIES WITH SETD2 INHIBITORS” (Epizyme, Inc., priority 2021, published 2024)", "system": "diffuse large B-cell lymphoma (DLBCL) cell lines", "assay": "Pre-treatment model combination study with Cpd. No. 15 (7 days pre-treatment, then combination; Table G), CellTiter-Glo viability, Loewe Volume", "conditions": "7 days pre-treatment with Cpd. No. 15, then combination; for Combination effect with Cpd. No. 15 (Loewe Volume class), Farage: cell line Farage (Cat. No. CRL-2630); for Combination effect with Cpd. No. 15 (Loewe Volume class), HT: cell line HT (Cat. No. CRL-2631); for Combination effect with Cpd. No. 15 (Loewe Volume class), OCILY7: cell line OCILY7 (Cat. No. ACC 688); for Combination effect with Cpd. No. 15 (Loewe Volume class), SUDHL4: cell line SUDHL4 (Cat. No. ACC 495); for Combination effect with Cpd. No. 15 (Loewe Volume class), WILL2: cell line WILL2 (Cat. No. ACC 652)", "data": [{"smiles": "NC(=O)c1cccc2cn(-c3ccc([C@@H]4CCCNC4)cc3)nc12", "note": "[Niraparib]", "values": [{"measurement": "Combination effect with Cpd. No. 15 (Loewe Volume class), Farage", "value": "Synergy (VLoewe>1: synergy)"}, {"measurement": "Combination effect with Cpd. No. 15 (Loewe Volume class), HT", "value": "Synergy (VLoewe>1: synergy)"}, {"measurement": "Combination effect with Cpd. No. 15 (Loewe Volume class), OCILY7", "value": "Additivity (between 1 and −1: additivity)"}, {"measurement": "Combination effect with Cpd. No. 15 (Loewe Volume class), SUDHL4", "value": "Synergy (VLoewe>1: synergy)"}, {"measurement": "Combination effect with Cpd. No. 15 (Loewe Volume class), WILL2", "value": "Synergy (VLoewe>1: synergy)"}]}, {"smiles": "NC(=O)Nc1cc(-c2cccc(F)c2)sc1C(=O)N[C@H]1CCCNC1", "note": "[AZD7762]", "values": [{"measurement": "Combination effect with Cpd. No. 15 (Loewe Volume class), Farage", "value": "Synergy (VLoewe>1: synergy)"}, {"measurement": "Combination effect with Cpd. No. 15 (Loewe Volume class), HT", "value": "Additivity (between 1 and −1: additivity)"}, {"measurement": "Combination effect with Cpd. No. 15 (Loewe Volume class), OCILY7", "value": "Additivity (between 1 and −1: additivity)"}, {"measurement": "Combination effect with Cpd. No. 15 (Loewe Volume class), SUDHL4", "value": "Synergy (VLoewe>1: synergy)"}, {"measurement": "Combination effect with Cpd. No. 15 (Loewe Volume class), WILL2", "value": "Additivity (between 1 and −1: additivity)"}]}, {"smiles": "CN(C)CCCOc1ccc(-c2ccc3ncc4c(c3c2)n(C2CCOCC2)c(=O)n4C)cn1", "note": "[AZD0156]", "values": [{"measurement": "Combination effect with Cpd. No. 15 (Loewe Volume class), Farage", "value": "Synergy (VLoewe>1: synergy)"}, {"measurement": "Combination effect with Cpd. No. 15 (Loewe Volume class), HT", "value": "Synergy (VLoewe>1: synergy)"}, {"measurement": "Combination effect with Cpd. No. 15 (Loewe Volume class), OCILY7", "value": "Synergy (VLoewe>1: synergy)"}, {"measurement": "Combination effect with Cpd. No. 15 (Loewe Volume class), SUDHL4", "value": "Synergy (VLoewe>1: synergy)"}, {"measurement": "Combination effect with Cpd. No. 15 (Loewe Volume class), WILL2", "value": "No Effect"}]}, {"smiles": "COc1cccc2c1C(=O)c1c(O)c3c(c(O)c1C2=O)C[C@@](O)(C(=O)CO)C[C@@H]3O[C@H]1C[C@H](N)[C@H](O)[C@H](C)O1", "note": "[Doxorubicin (H)]", "values": [{"measurement": "Combination effect with Cpd. No. 15 (Loewe Volume class), Farage", "value": "Synergy (VLoewe>1: synergy)"}, {"measurement": "Combination effect with Cpd. No. 15 (Loewe Volume class), HT", "value": "Synergy (VLoewe>1: synergy)"}, {"measurement": "Combination effect with Cpd. No. 15 (Loewe Volume class), OCILY7", "value": "Additivity (between 1 and −1: additivity)"}, {"measurement": "Combination effect with Cpd. No. 15 (Loewe Volume class), SUDHL4", "value": "Synergy (VLoewe>1: synergy)"}, {"measurement": "Combination effect with Cpd. No. 15 (Loewe Volume class), WILL2", "value": "Synergy (VLoewe>1: synergy)"}]}, {"smiles": "NC1(c2ccc(-c3nc4ccn5c(=O)[nH]nc5c4cc3-c3ccccc3)cc2)CCC1", "note": "[MK2206]", "values": [{"measurement": "Combination effect with Cpd. No. 15 (Loewe Volume class), Farage", "value": "Synergy (VLoewe>1: synergy)"}, {"measurement": "Combination effect with Cpd. No. 15 (Loewe Volume class), HT", "value": "Synergy (VLoewe>1: synergy)"}, {"measurement": "Combination effect with Cpd. No. 15 (Loewe Volume class), OCILY7", "value": "Synergy (VLoewe>1: synergy)"}, {"measurement": "Combination effect with Cpd. No. 15 (Loewe Volume class), SUDHL4", "value": "Synergy (VLoewe>1: synergy)"}, {"measurement": "Combination effect with Cpd. No. 15 (Loewe Volume class), WILL2", "value": "Synergy (VLoewe>1: synergy)"}]}, {"smiles": "C=CCn1c(=O)c2cnc(Nc3ccc(N4CCN(C)CC4)cc3)nc2n1-c1cccc(C(C)(C)O)n1", "note": "[AZD1775]", "values": [{"measurement": "Combination effect with Cpd. No. 15 (Loewe Volume class), Farage", "value": "Synergy (VLoewe>1: synergy)"}, {"measurement": "Combination effect with Cpd. No. 15 (Loewe Volume class), HT", "value": "Additivity (between 1 and −1: additivity)"}, {"measurement": "Combination effect with Cpd. No. 15 (Loewe Volume class), OCILY7", "value": "Additivity (between 1 and −1: additivity)"}, {"measurement": "Combination effect with Cpd. No. 15 (Loewe Volume class), SUDHL4", "value": "Synergy (VLoewe>1: synergy)"}, {"measurement": "Combination effect with Cpd. No. 15 (Loewe Volume class), WILL2", "value": "Synergy (VLoewe>1: synergy)"}]}, {"smiles": "CC[C@H](Nc1ncnc2[nH]cnc12)c1nc2cccc(F)c2c(=O)n1-c1ccccc1", "note": "[Idelalisib]", "values": [{"measurement": "Combination effect with Cpd. No. 15 (Loewe Volume class), Farage", "value": "Synergy (VLoewe>1: synergy)"}, {"measurement": "Combination effect with Cpd. No. 15 (Loewe Volume class), HT", "value": "Synergy (VLoewe>1: synergy)"}, {"measurement": "Combination effect with Cpd. No. 15 (Loewe Volume class), OCILY7", "value": "Additivity (between 1 and −1: additivity)"}, {"measurement": "Combination effect with Cpd. No. 15 (Loewe Volume class), SUDHL4", "value": "Synergy (VLoewe>1: synergy)"}]}]}
